These results are taken from ChEMBL document CHEMBL3507680, “University of Dundee, Gates Library screen for HepG2 cell viability”.

This data set in a line: Human HepG2 cell viability assay in 384 well format. It counts as toxicity, cell-based. Details: dose 125 nL, time 70.5 hour; cytotoxicity at 70.5 h: concentration not given beside the values. The following applies: HepG2 cells, read-out: Inhibition.

For `Cc1cccc(NC(=O)CNC(=O)Cn2ncc(Cl)c(Cl)c2=O)c1C`, the cytotoxicity at 70.5 h came out at 4.71%. On to `Cc1ccc(S(=O)(=O)NC(=O)CCOCC(C)C)s1`, for which the cytotoxicity at 70.5 h is 8.21%. On to `CCC(Nc1nnnn1-c1ccccc1)C(=O)Nc1nc(C)cs1` (centres undefined), for which the cytotoxicity at 70.5 h is -12.4%. As to `CCC(Nc1nnnn1-c1ccccc1)C(=O)NCc1ccsc1` (centres undefined), the cytotoxicity at 70.5 h was -12.5%. Turning to `CC(=O)N1CCN(C(=O)CNc2cccc(OC(F)F)c2C)CC1`, the cytotoxicity at 70.5 h was -1.78%.

Turning to `Cc1noc(C)c1CN(C)C(=O)COc1cccc(C#N)c1`, the cytotoxicity at 70.5 h was -10.8%. Under `CCC1CN(C(=O)c2csc(-c3cnn(C)c3)n2)CCO1` (centres undefined) stands -10.2%; under `COCCCN(C)S(=O)(=O)c1ccc(C(F)(F)F)cc1C#N`, -10.6%; under `CCN(CC)S(=O)(=O)c1ccc(C(F)(F)F)cc1C#N`, -8.21%. `CN(CC1CC1)S(=O)(=O)c1ccc(C(F)(F)F)cc1C#N`: the cytotoxicity at 70.5 h was -11.7%. Under `CCC(C)(C)NC(=O)CSCc1ccc(S(=O)(=O)N(C)C)o1` stands -9.79%. Next, `COc1ccsc1C(=O)Nc1cc(Br)c(=O)n(C)c1`: -4.19%; `Cc1csc(C(C#N)C(=O)NCc2ccccc2)n1` (centres undefined): -6.71%.

`COc1cccc(NC(=O)NCC(Cc2cnn(C)c2)C(N)=O)c1` (centres undefined): the cytotoxicity at 70.5 h is -7.2%.

Turning to `Cn1cc(CC(CNC(=O)Nc2cccc(Cl)c2)C(N)=O)cn1` (centres undefined), the cytotoxicity at 70.5 h is -6.01%. Under `CC(C)C(c1cccnc1)N(C)C(=O)Cc1c(F)cccc1F` (centres undefined) stands -6.11%; under `O=C(Cc1ccc(S(=O)(=O)C(F)F)cc1)N1CCCC1`, -5.59%. Under `CC1CCN(C(=O)Cc2ccc(S(=O)(=O)C(F)F)cc2)CC1` stands -11%; under `COCCOC1CCN(C(=O)NCc2cc(C)oc2C)CC1`, -8.46%; under `CC(C)c1nnc2n1CCN(C(C)c1nnc(-c3cccs3)o1)C2` (centres undefined), -3.01%.

As to `CC(C)N(C)C(=O)CSCc1ccc(S(=O)(=O)N(C)C)o1`, the cytotoxicity at 70.5 h is -10.8%. Under `Cc1ccc2c(c1)OCCCC2NCc1nccn1Cc1ccccc1` (centres undefined) stands -6.01%; under `CCN1CCN(C(=O)C(C)SC)CC1` (centres undefined), -6.96%; under `Cc1cccc2c1OCCCC2NCc1nccn1Cc1ccccc1` (centres undefined), -5.77%.

Take `Cc1ccc2c(c1)OCCCC2NCc1nccn1CC(C)C` (centres undefined): the cytotoxicity at 70.5 h was -7.28%.

As for `Cc1nc(CNC(C(=O)N2CCOCC2)C(C)C)no1` (centres undefined), the cytotoxicity at 70.5 h was -6.16%. Next, `COCCN(CCOC)c1ncccc1Cl`: -6.57%; `Cc1nc(CN(C)C2CCN(Cc3cccc4cccnc34)C2)no1` (centres undefined): 34%. Next, `CCc1nnnn1Cc1csc(N(C)C(C)=O)n1`: 11.5%; `O=C(NCC1(Sc2ccccc2)CC1)c1c[nH]nn1`: -0.96%. Next, `O=C(NCC1(Sc2ccccc2)CC1)c1cc[nH]n1`: -1.79%; `CS(=O)(=O)c1ccc(C(=O)NCc2nc3cc(F)ccc3[nH]2)cc1`: 0.751%. With `Cc1noc(C)c1CC(=O)N1CCCN(C)c2ccc(Cl)cc21`, the cytotoxicity at 70.5 h was -11.4%. Next, `Cc1cc(S(=O)(=O)NCC[S+](C)[O-])c(F)cc1F` (centres undefined): -2.05%.

Take `CC(O)(CNC(=O)c1cccnc1-n1cccn1)c1ccco1` (centres undefined): the cytotoxicity at 70.5 h was -4.51%. Next, `NC(=O)CN1CCC(OCc2ccc(Cl)c(Cl)c2)CC1`: -1.02%; `CCc1cnccc1C(=O)NC1CCN(C(=O)OC)CC1`: 24.5%. Next, `CC(O)(CNC(=O)c1cccnc1-n1cccn1)c1cccs1` (centres undefined): -9.1%; `CC(C)(C)SCC(=O)NC(C)(C(N)=O)c1cccc(Cl)c1` (centres undefined): -6.38%. Under `CC(C)(C)CC(=O)NC(C)(C(N)=O)c1cccc(Cl)c1` (centres undefined) stands 17.3%. For the compound `Cc1nnc(CN(C)CC2CCCCC2)o1`, the cytotoxicity at 70.5 h was -11.8%. On to `Cc1cc(S(=O)(=O)NCC(C)(O)CN(C)C)c(F)cc1F` (centres undefined), for which the cytotoxicity at 70.5 h is -9.95%. Turning to `CC1COCCN1Cc1noc(C(C)(C)C)n1` (centres undefined), the cytotoxicity at 70.5 h was determined as 19.8%. Next, `Cc1cnn(CC2CCCN2Cc2cc(=O)n3ccccc3n2)c1` (centres undefined): -5.58%. For `Cc1cc(CN2CCCC(C)(CO)C2)ccc1F` (centres undefined), the cytotoxicity at 70.5 h is -6.61%. Next, `Cc1ccc(C(CNCC2CC2)N2CCOCC2)s1` (centres undefined): 11.7%; `CS(=O)(=O)NCCCNC(=O)c1cccnc1O`: -4.43%. Under `O=C(Nc1ccc(N2CCCC2)nc1)N1CCc2sccc2C1` stands 15.9%; under `Cc1cc(NC(=O)c2nc(N3CCCC3)ncc2Cl)nc(C(C)C)n1`, 2.57%; under `CS(=O)(=O)c1ccc(NC(=O)N2CCc3sccc3C2)cn1`, 46.4%.

On to `COc1cc(CN(C)C(=O)Nc2cc(C)on2)ccc1SC`, for which the cytotoxicity at 70.5 h is -1.35%. Next, `N#CCCN(CCC#N)C(=O)CN1CCCC1Cc1cccc(F)c1` (centres undefined): -5%; `Cc1ccc(C(=O)NCCCNS(C)(=O)=O)c(=O)[nH]1`: -3.31%. Under `CNC(=O)c1cnc(/C=C/c2ccc(OC)c(O)c2)s1` stands -6.12%.

Take `O=C(Nc1ccc(N2CCCC2)nc1)N1CCc2ccccc2C1`: the cytotoxicity at 70.5 h came to 3.91%. Next, `COc1ccc(NC(=O)C2CCOC2)c(N2CCN(C(C)=O)CC2)n1` (centres undefined): 4.61%; `COc1ccc(NC(=O)c2ccc[nH]2)c(N2CCN(C(C)=O)CC2)n1`: -0.755%. Under `CCCNC(=O)Nc1cc2c(cc1SC)OCCO2` stands 0.576%; under `CSc1cc2c(cc1NC(=O)NCC(C)(C)C(N)=O)OCCO2`, -1.42%. On to `CCCN1CCC(NC(=O)NCCc2nc(CC)c(C)s2)CC1`, for which the cytotoxicity at 70.5 h was -1.97%. Under `CCCn1nc2c(cc1=O)CN(Cc1cc(C)on1)CC2` stands 4.88%. Under `Cc1noc(CN2CCN(CC(C)O)CC2)n1` (centres undefined) stands 2.13%; under `COCCCN1CCCN(C(C)C(=O)Nc2cccc(I)c2)CC1` (centres undefined), 21.2%.

Regarding `COCCCN1CCCN(C(C)C(=O)Nc2ccnn2C(C)C)CC1` (centres undefined), the cytotoxicity at 70.5 h was -4%.

Take `COc1cccc(CN(C)Cc2cccc(C#N)c2)c1OC`: the cytotoxicity at 70.5 h is -3.83%. Under `CNS(=O)(=O)c1cccc(C(C)NCc2cccc(OC)c2)c1` (centres undefined) stands 10.9%. Next, `CNS(=O)(=O)c1cccc(C(C)NCc2ccccc2)c1` (centres undefined): -2.31%; `CC(NCC1=Cc2cc(Cl)ccc2OC1)c1nnc2n1CCCC2` (centres undefined): -3.35%.

For the compound `Cc1ccc(CNCc2nnc3n2CCCC3C(F)(F)F)s1` (centres undefined), the cytotoxicity at 70.5 h is -10.1%.

Take `CCCS(=O)(=O)N1CCC(NC(=O)c2ccc(Cl)s2)CC1`: the cytotoxicity at 70.5 h is -11.6%. Next, `CCCS(=O)(=O)N1CCC(NC(=O)c2cc(C)c(CC)s2)CC1`: -12.1%; `CCC(=O)NCc1cc(Br)ccc1OC(F)F`: -6%; `Cc1cc(C2CCCN2C(=O)NCc2cccc(F)c2)on1` (centres undefined): -8.57%. Under `CCCSCC(=O)Nc1ncn(CC(=O)NCc2ccccc2)n1` stands -5.44%. Under `Cc1cnn(Cc2cc(F)ccc2F)c1NC(=O)NC1CC1` stands -7.32%; under `CCCNC(=O)CCNC(=O)Cc1nc(-c2ccco2)oc1C`, -4.05%. `Cc1cccc(NC(=O)[C@@H]2CCCN2CC(=O)N2CCCCCC2)n1`: the cytotoxicity at 70.5 h is -4.62%. Next, `Cc1cnn(C2CN(CC(O)c3ccc4c(c3)OCCO4)C2)c1` (centres undefined): -3.93%; `Cc1cc(S(=O)(=O)N2CCCc3ccc(F)cc32)sc1C(=O)O`: -2.82%; `N#CC(Sc1nnnn1C1CCOCC1)C1CCCCC1` (centres undefined): -3.62%.

Regarding `Cc1cc(C(=O)NC2CCCN(c3ccccc3)C2=O)on1` (centres undefined), the cytotoxicity at 70.5 h came to 0.654%. Under `CS(=O)(=O)NCC(=O)N1CCCC1c1noc(C2CC2)n1` (centres undefined) stands -2.26%. Next, `Cc1cc(NC(=O)Cn2cc(C#N)c(=O)c3cc(Br)ccc32)no1`: 0.537%; `COCc1nc2n(n1)CCCC2Nc1nc(C2CC2)ns1` (centres undefined): 1.93%. Take `CCc1nsc(NC2CCCn3nc(COC)nc32)n1` (centres undefined): the cytotoxicity at 70.5 h was -3.94%. Under `CSC(C)(C)CNC(=O)NC1CCN(C)CC1` stands -3.38%; under `COc1cccc(Cc2nnc(SC3CCOC3=O)o2)c1` (centres undefined), -5.61%; under `COC(=O)CCN1CCCC1c1ccccc1Cl` (centres undefined), -6.47%.

As for `N#Cc1cccc(CS(=O)(=O)NCCC(O)c2ccccc2)c1` (centres undefined), the cytotoxicity at 70.5 h is -10%. Turning to `Cc1ccc(C2COCCN2C(=O)c2ccc(N(C)C)cc2)o1` (centres undefined), the cytotoxicity at 70.5 h is -8.97%. On to `COc1ncccc1NC(=O)N1CCC(CNC(C)=O)CC1`, for which the cytotoxicity at 70.5 h is -7.14%. Under `O=C(NCCN1CCOCC1)NCc1ncc(-c2ccccc2)o1` stands -11.5%. Next, `CCc1ncc(C(=O)NCCNC(=O)Cc2ccc(F)cc2)s1`: -11.7%. For `Cn1c(C(=O)N2CCC(C(=O)N3CCCC3)CC2)c(Cl)c2ccccc21`, the cytotoxicity at 70.5 h is -9.31%. Under `CCS(=O)(=O)c1ccc(N2CCC(NC(=O)CCC(C)C)CC2)cc1` stands -9.09%. Next, `Cn1ccnc1SCc1nc(C(C)(C)NC(=O)OC(C)(C)C)no1`: 12%; `c1ccc2c(N3CCCCC3Cn3cncn3)ncnc2c1` (centres undefined): -9.62%. Under `Cc1nc(C)n(CC2CCCCN2CC(=O)Nc2nncs2)n1` (centres undefined) stands -1.06%. Turning to `Cc1cnn(CCNCc2ccc(OCC(N)=O)cc2)c1`, the cytotoxicity at 70.5 h was -6.65%.

Take `Cc1cc(C)n(CC2CCCCN2CC(=O)Nc2cccnc2)n1` (centres undefined): the cytotoxicity at 70.5 h was found to be 17.8%. Under `Cc1ccc(S(=O)(=O)NCC(C)(C)N)c(F)c1` stands -6.25%; under `Cc1cc(S(=O)(=O)NCC(C)(C)N)c(F)cc1F`, -0.878%. Under `NCC1(c2cccc(Br)c2)CCOCC1` stands -5.45%; under `COc1c(CNC2CCc3c(Cl)cccc32)c(C)nn1C` (centres undefined), -12.4%.
